Results: PubChem BioAssay (NCI)
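Growth conditions: 96-well plates. Treatment: test compound, 48 hours, 5 concentrations. Analysis: linear interpolation between bracketing concentrations; unreached endpoints set to highest concentration. The concentration for full growth arrest is given as TGI.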

Tests used:
Test in all cases: DTP human tumour cell line panel, 48 h
OVCAR-4 ovarian = tested on: OVCAR-4 ovarian
MDA-MB-435 = tested on: MDA-MB-435
SK-MEL-5 melanoma = tested on: SK-MEL-5 melanoma
HS 578T breast = tested on: HS 578T breast
DU-145 prostate = tested on: DU-145 prostate
HCT-116 colon = tested on: HCT-116 colon
SW-620 colon = tested on: SW-620 colon
SF-295 CNS = tested on: SF-295 CNS
MDA-N = tested on: MDA-N
EKVX NSCLC = tested on: EKVX NSCLC
COLO 205 colon = tested on: COLO 205 colon
MCF7 breast = tested on: MCF7 breast
SK-OV-3 ovarian = tested on: SK-OV-3 ovarian
HT29 colon = tested on: HT29 colon
UACC-257 melanoma = tested on: UACC-257 melanoma
M14 melanoma = tested on: M14 melanoma
SN12C renal = tested on: SN12C renal
UACC-62 melanoma = tested on: UACC-62 melanoma
IGROV1 ovarian = tested on: IGROV1 ovarian
A549 NSCLC = tested on: A549 NSCLC

CC(=O)O[C@H]1[C@@H](OC(C)=O)C(C)(C)/C=C/[C@H](C)C(=O)[C@@]2(OC(C)=O)C[C@@](C)(OC(C)=O)[C@H](OC(C)=O)[C@@H]2[C@H]2OC(=O)CC[C@@]2(OC(=O)c2ccccc2)[C@@H]1OCC(C)C
TGI (OVCAR-4 ovarian): > 100 µM | TGI (MDA-MB-435): > 100 µM | TGI (SK-MEL-5 melanoma): > 100 µM | TGI (HS 578T breast): 65.4 µM | TGI (DU-145 prostate): > 100 µM | TGI (HCT-116 colon): 65.2 µM | TGI (SW-620 colon): > 100 µM | TGI (SF-295 CNS): > 100 µM | TGI (MDA-N): > 100 µM | TGI (EKVX NSCLC): > 100 µM | TGI (COLO 205 colon): > 100 µM | TGI (MCF7 breast): > 100 µM | TGI (SK-OV-3 ovarian): > 100 µM | TGI (HT29 colon): > 100 µM | TGI (UACC-257 melanoma): > 100 µM | TGI (M14 melanoma): > 100 µM | TGI (SN12C renal): > 100 µM | TGI (UACC-62 melanoma): > 100 µM | TGI (IGROV1 ovarian): > 100 µM

CCSc1nc(N)c2c(-c3ccccc3)c3c(nc2n1)CCC3
TGI (OVCAR-4 ovarian): > 100 µM | TGI (MDA-MB-435): > 100 µM | TGI (SK-MEL-5 melanoma): > 100 µM | TGI (HS 578T breast): > 100 µM | TGI (DU-145 prostate): > 100 µM | TGI (HCT-116 colon): > 100 µM | TGI (A549 NSCLC): > 100 µM | TGI (SW-620 colon): > 100 µM | TGI (SF-295 CNS): > 100 µM | TGI (MDA-N): > 100 µM | TGI (EKVX NSCLC): > 100 µM | TGI (COLO 205 colon): > 100 µM | TGI (MCF7 breast): > 100 µM | TGI (SK-OV-3 ovarian): > 100 µM | TGI (UACC-257 melanoma): > 100 µM | TGI (M14 melanoma): > 100 µM | TGI (SN12C renal): > 100 µM | TGI (UACC-62 melanoma): > 100 µM | TGI (IGROV1 ovarian): > 100 µM

NC1(C(=O)O)CCCC1
TGI (OVCAR-4 ovarian): > 625 µM | TGI (SK-MEL-5 melanoma): > 625 µM | TGI (HCT-116 colon): > 625 µM | TGI (A549 NSCLC): > 625 µM | TGI (SW-620 colon): > 625 µM | TGI (SF-295 CNS): > 625 µM | TGI (EKVX NSCLC): > 625 µM | TGI (COLO 205 colon): > 625 µM | TGI (MCF7 breast): > 625 µM | TGI (SK-OV-3 ovarian): > 625 µM | TGI (HT29 colon): > 625 µM | TGI (UACC-257 melanoma): > 625 µM | TGI (SN12C renal): > 625 µM | TGI (UACC-62 melanoma): > 625 µM | TGI (IGROV1 ovarian): > 625 µM

CSCCC(NC(=O)OCc1ccccc1)NC(=O)OCc1ccccc1
TGI (OVCAR-4 ovarian): > 100 µM | TGI (MDA-MB-435): > 100 µM | TGI (SK-MEL-5 melanoma): > 100 µM | TGI (HS 578T breast): > 100 µM | TGI (DU-145 prostate): > 100 µM | TGI (HCT-116 colon): > 100 µM | TGI (A549 NSCLC): > 100 µM | TGI (SW-620 colon): > 100 µM | TGI (SF-295 CNS): > 100 µM | TGI (MDA-N): > 100 µM | TGI (COLO 205 colon): > 100 µM | TGI (SK-OV-3 ovarian): > 100 µM | TGI (HT29 colon): > 100 µM | TGI (UACC-257 melanoma): > 100 µM | TGI (M14 melanoma): > 100 µM | TGI (SN12C renal): > 100 µM | TGI (IGROV1 ovarian): > 100 µM
